A word on the IC50: it is the midpoint of a concentration-inhibition curve. As a reminder, the logD is lipophilicity at a set pH, counting ionised and neutral species. A high value points to higher lipophilicity.

One data set deals with T1, CD13 receptor (Homo sapiens, UniProt P15144).
T1 construct: endogenous in cells; host or cells: HT-1080 human fibrosarcoma cells
Kind of data set: Cell-based competitive binding assay against ^125I-NGR. The settings on record: HT-1080 cells, competitor 10^-12 to 10^-5 M, gamma counter, n = 3; read-out: IC50, inhibition of ^125I-NGR binding to CD13 receptor. As to the method:
In vitro CD13 binding affinity and specificity of NOTA-G3-NGR were tested by a cell-based competitive assay. The binding of ^125I-NGR to CD13 receptors in HT-1080 cells can be inhibited by NOTA-G3-NGR in a dose-dependent manner (Figure 1b).
In vitro CD13 receptor binding affinity and specificity of NOTA-G3-NGR in HT-1080 cells were assessed using a cell-based competitive assay. ^125I-labeled linear NGR peptide (sequence H-Tyr-Gly-Gly-Cys-Asn-Gly-Arg-Cys-OH) was prepared using the Iodogen method and used as the radioligand for CD13. The non-radiolabeled NOTA-G3-NGR peptide (concentrations at a range from 10^−12 to 10^−5 M) was co-incubated with ^125I-NGR in HT-1080 cells. After washing with ice-cold binding buffer three times, the HT-1080 cells were lysed in 200 µL of lysis buffer. The cell-associated radioactivity was then measured using a gamma counter (Beijing PET CO., Ltd., Beijing, China). The IC50 (50% inhibitory concentration) value was obtained by fitting the data using nonlinear regression with GraphPad Prism (GraphPad Software, San Diego, CA, USA). Experiments were performed in triplicate.

Another data set is described as follows: physchem. The settings on record: pH 7.4. The format is physicochemical. As to the method: The octanol–water partition coefficient value was determined by measuring the distribution (logD) of radioactivity in octanol and PBS. Approximately 5 KBq of ^68Ga- NOTA-G3-NGR (2 μL) was added to a vial containing 0.5 mL of octanol and 0.5 mL of PBS (pH = 7.4). The mixture was then vortexed vigorously for 15 min. Subsequently, the mixture was centrifuged at 12,500 rpm for 5 min to ensure the complete separation of layers. Aliquots of the aqueous and octanol layers were collected, measured in a gamma counter (Beijing PET CO., Ltd., Beijing, China). The octanol–water partition coefficient value was then calculated (n = 5).

T1 sequence (P15144 whole entry): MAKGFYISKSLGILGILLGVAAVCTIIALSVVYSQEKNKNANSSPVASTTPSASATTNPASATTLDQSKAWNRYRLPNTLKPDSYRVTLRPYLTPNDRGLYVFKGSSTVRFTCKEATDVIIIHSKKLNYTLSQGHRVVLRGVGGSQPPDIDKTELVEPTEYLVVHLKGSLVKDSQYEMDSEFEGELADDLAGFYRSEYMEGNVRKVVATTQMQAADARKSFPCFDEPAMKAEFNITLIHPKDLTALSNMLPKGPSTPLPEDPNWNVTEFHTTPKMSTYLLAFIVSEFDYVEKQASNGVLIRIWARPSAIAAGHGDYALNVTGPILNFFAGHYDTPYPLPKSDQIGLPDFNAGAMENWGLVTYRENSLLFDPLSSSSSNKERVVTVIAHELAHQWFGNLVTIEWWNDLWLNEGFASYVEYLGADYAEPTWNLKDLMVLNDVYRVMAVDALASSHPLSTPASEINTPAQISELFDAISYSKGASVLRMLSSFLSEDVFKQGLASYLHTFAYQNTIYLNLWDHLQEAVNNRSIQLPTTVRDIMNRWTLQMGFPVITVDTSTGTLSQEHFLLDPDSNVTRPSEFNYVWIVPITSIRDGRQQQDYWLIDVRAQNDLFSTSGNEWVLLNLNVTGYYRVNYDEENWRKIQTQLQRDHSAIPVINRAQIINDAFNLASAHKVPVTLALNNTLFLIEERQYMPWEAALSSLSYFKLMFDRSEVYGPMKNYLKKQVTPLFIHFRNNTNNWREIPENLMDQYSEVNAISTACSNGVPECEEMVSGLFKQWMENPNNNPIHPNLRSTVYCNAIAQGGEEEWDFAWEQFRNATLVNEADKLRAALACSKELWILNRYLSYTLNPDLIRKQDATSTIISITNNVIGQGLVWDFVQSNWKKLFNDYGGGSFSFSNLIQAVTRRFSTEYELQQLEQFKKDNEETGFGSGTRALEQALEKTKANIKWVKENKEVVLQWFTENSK

On to `N=C(N)NCCC[C@@H]1NC(=O)CNC(=O)[C@H](CC(N)=O)NC(=O)[C@@H](NC(=O)CNC(=O)CNC(=O)CNC(=S)Nc2ccc(CC3CN(CC(=O)O)CCN(CC(=O)O)CCN3CC(=O)O)cc2)CSSC[C@@H](C(=O)O)NC1=O` (some centres unmarked) [NOTA-G3-NGR], for which the IC50 on CD13 receptor stood at 74.7 ± 3.91 nM.

In the case of `N=C(N)NCCC[C@@H]1NC(=O)CNC(=O)[C@H](CC(N)=O)NC(=O)[C@@H](NC(=O)CNC(=O)CNC(=O)CNC(=S)Nc2ccc(CC3CN(CC(=O)O)CCN(CC(=O)O)CCN3CC(=O)O)cc2)CSSC[C@@H](C(=O)O)NC1=O` (some centres unmarked) [^68Ga-NOTA-G3-NGR, metal not drawn], in “physchem”, the logD was -2.25 ± 0.17.

Source of the values: paper PMC6271277, “^68Ga-Labeled Cyclic NGR Peptide for MicroPET Imaging of CD13 Receptor Expression” (Molecules, 2014).
